{"source": "patent US20090286738A1", "about": "“Gene Regulation” (ST. GEORGE'S ENTERPRISES LIMITED, priority 2005, published 2009)", "key": {"[1]": {"test_system": "malignant cell lines (B16 mouse melanoma, LNCAP human prostate cancer, K562)", "test": "Activity of peptides on different malignant cell lines, living and dead cells after 3 hours (FIGS. 6 to 8)", "type": "cell-based", "settings": "further experiments", "description": "(§1) The peptides as indicated were applied to the cells at a concentration of 60 μM (FIG. 6A) or 6 μM (FIG. 6B). In both experiments the HXArg9, CX1Arg9 and CX2Arg9 peptides used were the (2D) variant peptides in which the N- and C-terminal amino acids are in the D conformation and all remaining amino acids are in the L conformation. The number of living and dead cells were assessed after 3 hours. Black bars=% or number of cells dead. White bars=% or number of cells alive.\nas §1, with “7A)” for “6A)”, “7B).” for “6B).”\nas §1, with “μM. HXArg9(2D) is” for “μM (FIG. 6A) or 6 μM (FIG. 6B). In both experiments”, “variant form of HXArg9 in which the N-terminal and C-terminal amino acids are in the D conformation and the remaining amino acids are in the L conformation. HXArg9 consists of only L-conformation amino acids. The” for “HXArg9,”, “bars=%” for “bars=% or number of”\n(§2) Cell lines were seeded at 4×10^4 cells/ml in liquid culture system made of RPMI-1640 medium (Life Technologies, UK) supplemented with Foetal Calf Serum (10% Sigma Aldrich) and penicillin/streptomycin (1%, Sigma) and at least in duplicate. When required the test peptide was added to the medium. Cell lines were cultured for up to 7 days at 37° C., 5% CO2 in humidified atmosphere. Cultured cells were then assessed for cell viability/enumeration using trypan blue exclusion (Sigma Aldrich).\nThe activity of the peptides described above was tested on a number of different malignant cell lines using a similar assay to that described previously."}, "[2]": {"test_system": "A549 tumours", "test": "Treatment of A549 tumours in vivo", "design": "species or system mice", "settings": "twice weekly, 100 mg/kg followed by 10 mg/kg", "description": "FIG. 13. Treatment of A549 tumours in vivo. Nude mice were injected with one million A549 cells subcutaneously and treatment was started when tumours reached an average volume of 100 mm^3. […] (a) intralesional (IT) administration, (b) intraperitoneal (IP) administration.\n(§3) Control groups received control peptide and PBS accordingly. For the A549 tumour model, […] were used to establish flank models. This study was conducted by Perry Scientific Inc., USA.\nWe also examined whether HXArg9 could block the growth of a non-melanoma tumour in vivo. In order to do this, we established flank tumours using the non-small cell lung cancer derived cell line A549 (Lieber, M., et al. Int. J. Cancer 17, 62-70 (1976)) in nude mice."}, "[3]": {"test_system": "HOX/PBX/DNA complexes", "test": "Band shift assay, protein extracted from treated B16 tumours", "type": "in vivo, mice", "settings": "tumours treated for two hours", "description": "Double stranded oligodexoynucleotide probes were incubated in protein extracted from B16 tumours. One of these probes (HP) contained a HOX/PBX consensus binding region (bold)—5′ CTGTTTGATT TATTTGTTTA 3′. A second, control probe (CP) contained an altered HOX/PBX binding site that is not predicted to bind HOX and PBX proteins—5′ CTGTTACTGA CGATTGTTTA 3′. […] The mobility of CP was unchanged by incubating with the protein extract (lane 11). […] U, untreated; C, CX2Arg9(2D) treated; H, HXArg9(2D) treated; +HP, the HP probe was added to the lysates with an excess of unlabelled probe as shown (0, 5 fold, or 25 fold); +CP, control probe added to lysates; ‘+anti PBX’, anti-PBX antibody added to lysate; ‘+block pep’, a blocking peptide was added to the lysate that blocks anti-PBX antibody from binding to PBX.\n(§4) In order to assess whether the hexapeptide could block HOX/PBX binding in vivo, tumours were treated with HXArg9 for two hours and then used to produce nuclear lysates."}, "[4]": {"test_system": "B16 murine melanoma cells", "test": "Living and dead B16 cells after 3 hours (FIGS. 2A, 9)", "type": "cell-based", "settings": "3 hours", "description": "In FIG. 2A the peptides as indicated were applied to the cells at a concentration of 60 μM. The number of living and dead cells were assessed after 3 hours. Black bars=number of cells dead. White bars=number of cells alive.\nas §1\nThe HXArg9 peptide used was the (2D) variant peptide in which the N- and C-terminal amino acids are in the D conformation and all remaining amino acids are in the L conformation. HXArg9 was applied to the cells at a variety of concentrations (μM), and the number of dead and living cells was assessed after 3 hours. Black bars=% cells dead. White bars=% cells alive.\nas §2"}, "[5]": {"test_system": "B16 tumours", "test": "QPCR of RNA extracted from treated B16 tumours", "type": "in vivo, mice", "settings": "IP 15 mg/Kg, two hours after treatment", "description": "FIG. 10. […] RNA extracted from (a) B16 cells cultured in vitro and treated with 60 μM peptide for two hours, and (b) B16 tumours treated with peptide injected IP at 15 mg/Kg body weight; tumours were excised and RNA was extracted two hours after treatment. Results are expressed as a proportion of the level of β-actin transcripts. For (a), the results are an average of 2 separate experiments, for (b), the results are an average for tumours taken from three individual mice. U, untreated; C, CX2Arg9(2D) treated; H, HXArg9(2D) treated. Error bars represent the standard error of the mean.\nas §4"}, "[6]": {"test_system": "B16 tumours", "test": "Treatment of murine B16 tumours in vivo", "design": "species or system mice", "settings": "15 mg/kg intraperitoneal", "description": "FIG. 12. Treatment of murine B16 tumours in vivo. Mice were injected with one million B16 cells subcutaneously and treatment was started when tumours first became palpatable (day 1=first day after treatment). Mice were injected once daily for four days with an intraperitoneal dose of 15 mg/kg. (a) Changes in tumour size over treatment period (n=4). (b) Histological sections of tumours from HXArg9(2D) (HXR9) and CX2Arg9(2D) (CXR9) treated mice at the end of treatment.\nMice were maintained at the Biological Resource Facility at St. George's. Their care was in accordance to Home Office regulations. B16 cells in exponential growth phase were injected subcutaneously at a dose of 1×10^6 cells into C57black/6 mice. Tumour growth was monitored daily. Once tumours were established, mice received 15 mg/kg HXArg9(2D) intraperitoneal. Mice were euthanised and tumours excised and fixed for histopathological analysis.\nas §3\nThe B16 F10 murine tumour is a well established in vivo model of melanoma, and is also one of the most aggressive murine tumours (Fidler, I. J. & Nicolson, G. L. Isr. J. Med. Sci. 14, 38-50 (1978), Shrayer, D. et al. Cancer Immunol Immunother. 40, 277-282 (1995)). […]"}, "[7]": {"test": "Stability of peptides in human plasma at 37° C., SDS-PAGE", "type": "in vitro ADME", "description": "Peptides were incubated in human serum for the times shown and then visualised on a Coomassie brilliant blue stained gel. The arrow heads indicate the position of intact peptide. Standard=peptide only in this lane as a marker.\nThe stability of HXArg9(2D) and CX2Arg9(2D) was assessed by incubation each with human plasma at 37° C. and the amount of peptide remaining after different amounts of time was assessed by SDS-PAGE. Each peptide was added to freshly prepared human plasma to a final concentration of 1 mM in a total volume of 40 μl. Samples were incubated at 37° C. and reactions were stopped by adding 60 μl of water and 0.9 ml of protein gel loading buffer (BioRad, USA) containing 1% 2-mercaptoethanol, and heating to 95° C. for four minutes. 2 μl of each sample was run on a 22% acrylamide gel. […] This compared with a half life of approximately 40 minutes for the L isomer form HXArg9."}}}
{"smiles": "CSCC[C@H](NC(=O)[C@H](Cc1c[nH]c2ccccc12)NC(=O)[C@@H]1CCCN1C(=O)[C@H](Cc1ccc(O)cc1)NC(=O)[C@@H](N)Cc1c[nH]c2ccccc12)C(=O)N[C@@H](CCCCN)C(=O)N[C@@H](CCCCN)C(=O)N[C@@H](Cc1c[nH]cn1)C(=O)N[C@@H](Cc1c[nH]cn1)C(=O)N[C@@H](CCCNC(=N)N)C(=O)N[C@@H](CCCNC(=N)N)C(=O)N[C@@H](CCCNC(=N)N)C(=O)N[C@@H](CCCNC(=N)N)C(=O)N[C@@H](CCCNC(=N)N)C(=O)N[C@@H](CCCNC(=N)N)C(=O)N[C@@H](CCCNC(=N)N)C(=O)N[C@@H](CCCNC(=N)N)C(=O)N[C@@H](CCCNC(=N)N)C(=O)O", "note": "[HXArg9, WYPWMKKHHRRRRRRRRR]", "values": [{"measurement": "effectiveness in preventing cellular proliferation compared with HXP4", "setting": "[1]", "value": "as effective as HXP4"}, {"measurement": "tumour growth", "setting": "[2]", "value": "significant reduction in tumour growth"}, {"measurement": "binding of tumour protein extract to HOX/PBX consensus probe", "setting": "[3]", "value": "could not bind a DNA probe containing a HOX/PBX consensus binding site"}, {"measurement": "ablation of cells", "setting": "[4]; 4.625 μM", "value": "significant ablation"}, {"measurement": "ablation of cells", "setting": "[4]; 37 μM", "value": "ablation of substantially all"}, {"measurement": "ablation of cells", "setting": "[4]; 74 μM", "value": "ablation of substantially all"}, {"measurement": "transcripts of Fos, Jun, Dusp1 and Atf3 (QPCR)", "setting": "[5]", "value": "upregulated"}, {"measurement": "histological analysis of excised tumours", "setting": "[6]", "value": "inner cell death"}, {"measurement": "tumour size at end point", "setting": "[6]; once daily for four days", "value": "significant degree of shrinkage"}, {"measurement": "half-life", "setting": "[7]", "value": "~40", "unit": "min"}]}
